From US20210379010A1, “COMPOSITIONS COMPRISING CANNABINOIDS FOR USE IN THE TREATMENT OF BIOFILM AND CONDITIONS ASSOCIATED WITH MICROBIAL, FUNGAL, BACTERIAL INFECTIONS” (Yissum Research Development Company of The Hebrew …, priority 2018, published 2021)
≈ marks a conversion by molar mass, not a printed value.

Assays:
C. albicans biofilm [1] = assay: MTT assay of C. albicans biofilm; type: cell-based
Method: To investigate the effect of the agents on preformed biofilms, biofilms were allowed to mature in for 24 h at 37° C. in a 6-well plate. The biofilms were washed twice with PBS. The active agents were then applied. The plates were further incubated for 24 h at 37° C. The amounts of biofilms, were determined quantitatively using a standard MTT reduction assay as described previously. Briefly, biofilms were overlaid with […] of 3-(4,5-dimethyl-2-thiazolyl)-2,5-diphenyl-2H-tetrazolium bromide (MTT) and incubated for 2 h at 37° C. Under these conditions, the lightly yellowish MTT was reduced to a blue tetrazolium salt accumulated within the metabolic active biofilms. The stain was then dissolved in DMSO and the absorbance value was measured at 570 nm. The accumulation of tetrazolium salt by the reduction of MTT is proportional to the number of viable cells growing in biofilm. Prior to dissolving in DMSO, biofilms were photographed and visualized. Assay was performed in triplicate.

S.aureus MRSA 43300 = assay: Growth of MRSA 43300, cannabinoid alone and combined with antibiotic (MIC/FIC/FICI); type: cell-based; settings: MRSA 43300 growth; for MIC AMP: ampicillin alone; for MIC METH: methicillin alone
[2] = test system: S.aureus MRSA 43300 biofilm; assay: Biofilm formation of MRSA 43300, cannabinoid alone and combined with antibiotic (MBIC/FBIC/FBICI); type: cell-based; settings: for MBIC AMP: ampicillin alone; for MBIC METH: methicillin alone
S.aureus MRSA 33592 = assay: Growth of MRSA 33592, cannabinoid alone and combined with antibiotic (MIC/FIC/FICI); type: cell-based; settings: MRSA 33592 growth; for MIC AMP: ampicillin alone; for MIC METH: methicillin alone
[3] = test system: S.aureus MRSA 33592 biofilm; assay: Biofilm formation of MRSA 33592, cannabinoid alone and combined with antibiotic (MBIC/FBIC/FBICI); type: cell-based; settings: for MBIC AMP: ampicillin alone; for MBIC METH: methicillin alone
[4] = test system: fluconazole resistant C. albicans strains; type: cell-based; settings: each agent alone or in combination; data not shown
C. albicans biofilm [5] = assay: Microscopic observation of fungal morphology in biofilm; type: cell-based
[6] = test system: mixed C. albicans-S. mutans biofilm; assay: Co-species C. albicans-S. mutans biofilm formation inhibition; type: cell-based
C. albicans biofilm [7] = assay: Flow cytometry analysis of viable cells in fungal biofilm; type: cell-based; settings: for granularity: control 136 AU; for cell size: control 260 AU
C. albicans biofilm [8] = assay: C. albicans biofilm formation inhibition; type: cell-based
S. mutans = S. mutans growth (MIC); type: cell-based; settings: single S. mutans growth
C. albicans = C. albicans growth (MIC); type: cell-based; settings: single C. albicans growth; highest tested dose 64 μg/ml
S. mutans biofilm = S. mutans biofilm formation inhibition; type: cell-based; settings: for MBIC50: S. mutans biofilm formation
[9] = test system: mixed S. mutans-C. albicans; assay: Growth of C. albicans-S. mutans co-culture; type: cell-based; settings: all tested doses
S. aureus MRSA 24433 = assay: Growth of MRSA 24433, cannabinoid alone and combined with antibiotic (MIC/FIC/FICI); type: cell-based; settings: for FIC METH / MIC METH: MRSA 24433 growth; for MIC METH: methicillin alone
[10] = test system: S. aureus MRSA 24433 biofilm; assay: Biofilm formation of MRSA 24433, cannabinoid alone and combined with antibiotic (MBIC/FBIC/FBICI); type: cell-based; settings: for MBIC METH: methicillin alone
P. aeruginosa biofilm = assay: CLSM of treated P. aeruginosa biofilm

With `CCCCC/C=C\C/C=C\C/C=C\C/C=C\CCCC(=O)OC(CO)CO` [2-AG, 2-arachidonoyl glycerol] the “C. albicans biofilm formation (MTT assay)” value (C. albicans biofilm [1]) was “dose-dependent inhibition”.
With `CC1(C)S[C@@H]2[C@H](NC(=O)[C@H](N)c3ccccc3)C(=O)N2[C@H]1C(=O)O` [AMP, ampicillin, reference compound] the “FIC AMP” value (S.aureus MRSA 43300; MIC of ampicillin in combination with AEA, Table 8B) was 8, the “FIC AMP” value (S.aureus MRSA 43300; MIC of ampicillin in combination with ARAS, Table 5B) was 16 and the MIC AMP (S.aureus MRSA 43300; Table 5B) was 256 mg/L. For the same molecule, the MIC AMP (S.aureus MRSA 43300; Table 8B) was greater than 128 mg/L, the “FBIC AMP” value ([2]; MBIC of ampicillin in combination with AEA, Table 8B) was 8 and the “FBIC AMP” value ([2]; MBIC of ampicillin in combination with ARAS, Table 5B) was 64. For the same molecule, the “MBIC AMP” value ([2]; Table 5B) was 256, the “MBIC AMP” value ([2]; Table 8B) was greater than 128 and the “FIC AMP” value (S.aureus MRSA 33592; MIC of ampicillin in combination with AEA, Table 8A) was 8. The “FIC AMP” value (S.aureus MRSA 33592; MIC of ampicillin in combination with ARAS, Table 5A) was 64, the MIC AMP (S.aureus MRSA 33592; Table 5A) was 128 mg/L and the MIC AMP (S.aureus MRSA 33592; Table 8A) was 128 mg/L. For the same molecule, the “FBIC AMP” value ([3]; MBIC of ampicillin in combination with AEA, Table 8A) was 8, the “FBIC AMP” value ([3]; MBIC of ampicillin in combination with ARAS, Table 5A) was 32 and the “MBIC AMP” value ([3]; Table 5A) was 128. For the same molecule, the “MBIC AMP” value ([3]; Table 8A) was 128.
`OC(Cn1cncn1)(Cn1cncn1)c1ccc(F)cc1F` [FLU, fluconazole, reference compound] was tested, and the “growth of fluconazole resistant fungal strains” value [4] was “not affected”.
For `CCCCCCC(C)(C)c1cc(O)c2c(c1)OC(C)(C)[C@@H]1CC=C(CO)C[C@@H]21` [HU210, 1,1-Dimethylheptyl-11-hydroxy-tetrahydrocannabinol], the “fungal morphology in biofilm” value (C. albicans biofilm [5]; 8 μg/ml) was “influenced fungal morphology”, the yeast-to-hyphae transition (C. albicans biofilm [5]; 64 μg/ml) was “appearance of mainly yeast form of C. albicans” and the “density of fungal mycelium” value (C. albicans biofilm [5]; increasing doses up to 64 μg/ml) was “decreased dose-dependently”. It also gave an MBIC50 [6] of 4 µg/mL, a granularity (C. albicans biofilm [7]; 8 μg/ml) of 50 AU and a cell size (C. albicans biofilm [7]; 8 μg/ml) of 110 AU. For the same molecule, the “viable C. albicans cells in biofilm” value (C. albicans biofilm [7]; 8 μg/ml, untreated control 88%) was 20%, the “viable cells in fungal biofilm” value (C. albicans biofilm [7]; 64 μg/ml) was “totally reduced viable cells” and the granularity (C. albicans biofilm [7]; 64 μg/ml) was 40 AU. The cell size (C. albicans biofilm [7]; 64 μg/ml) was 100 AU, the “biofilm formation at highest tested dose” value (C. albicans biofilm [8]; HU210 64 μg/ml) was “Almost no biofilm formed” and the “MBIC50 (minimal biofilm inhibitory concentration 50, 50% of biofilm inhibition)” value (C. albicans biofilm [8]; single C. albicans biofilm formation) was 2 µg/mL. For the same molecule, the MIC (S. mutans) was 2 mg/L (≈ 5.17 µM), the “MIC, fungal growth” value (C. albicans) was “not detected at tested doses” and the streptococcal biofilm formation (S. mutans biofilm; HU210 2 μg/ml) was “No streptococcal biofilm was formed”. For the same molecule, the growth of co-culture [9] was “not affected”.
With `COc1cccc(OC)c1C(=O)N[C@@H]1C(=O)N2[C@@H]1SC(C)(C)[C@@H]2C(=O)O` [METH, methicillin, reference compound] the “FIC METH” value (S.aureus MRSA 43300; MIC of methicillin in combination with AEA, Table 6C) was 8, the “FIC METH” value (S.aureus MRSA 43300; MIC of methicillin in combination with ARAS, Table 3C) was 2 and the MIC METH (S.aureus MRSA 43300; Table 3C) was 32 mg/L. For the same molecule, the MIC METH (S.aureus MRSA 43300; Table 6C) was 32 mg/L, the “FBIC METH” value ([2]; MBIC of methicillin in combination with AEA, Table 6C) was 8 and the “FBIC METH” value ([2]; MBIC of methicillin in combination with ARAS, Table 3C) was 8. For the same molecule, the “MBIC METH” value ([2]; Table 3C) was 32, the “MBIC METH” value ([2]; Table 6C) was 32 and the “FIC METH” value (S.aureus MRSA 33592; MIC of methicillin in combination with AEA, Table 6A) was 16. The “FIC METH” value (S.aureus MRSA 33592; MIC of methicillin in combination with ARAS, Table 3A) was 8, the MIC METH (S.aureus MRSA 33592; Table 3A) was 32 mg/L and the MIC METH (S.aureus MRSA 33592; Table 6A) was 32 mg/L. The “FIC METH” value (S. aureus MRSA 24433; MIC of methicillin in combination with AEA, Table 1) was 16 µg/mL, the “FIC METH” value (S. aureus MRSA 24433; MIC of methicillin in combination with AEA, Table 6B) was 16 and the “FIC METH” value (S. aureus MRSA 24433; MIC of methicillin in combination with ARAS, Table 3B) was greater than 64. The “MIC METH” value (S. aureus MRSA 24433; Table 1) was greater than 64 mg/L, the MIC METH (S. aureus MRSA 24433; Table 3B) was greater than 64 mg/L and the MIC METH (S. aureus MRSA 24433; Table 6B) was greater than 64 mg/L. The MIC (S. aureus MRSA 24433; Staphylococcus aureus, MRSA, read-out: MIC METH) was greater than 64 mg/L, the “FBIC METH” value ([3]; MBIC of methicillin in combination with AEA, Table 6A) was 8 and the “FBIC METH” value ([3]; MBIC of methicillin in combination with ARAS, Table 3A) was 8. The “MBIC METH” value ([3]; Table 3A) was 32, the “MBIC METH” value ([3]; Table 6A) was 32 and the “FBIC METH” value ([10]; MBIC of methicillin in combination with AEA, Table 1) was 16 µg/mL. The “FBIC METH” value ([10]; MBIC of methicillin in combination with AEA, Table 6B) was 16, the “FBIC METH” value ([10]; MBIC of methicillin in combination with ARAS, Table 3B) was 16 and the “MBIC METH” value ([10]; Table 1) was greater than 64 µg/mL. The “MBIC METH” value ([10]; Table 3B) was greater than 64 and the “MBIC METH” value ([10]; Table 6B) was greater than 64.
`CCCCCCCC/C=C\CCCCCCCC(=O)N[C@@H](C)C(=O)O` [OA, oleoyl alanine] showed an MBIC50 (S. mutans biofilm) of 16 µg/mL.
With `CCCCCCCC/C=C\CCCCCCCC(=O)NCCO` [OEA, oleoyl ethanolamide] the MBIC50 (S. mutans biofilm) was 64 µg/mL.
`CCCCCCCC/C=C\CCCCCCCC(=O)NCC(=O)O` [OG, oleoyl glycine] showed an MBIC50 (S. mutans biofilm) of 32 µg/mL.
In the case of `CCCCCCCCCCCCCCCC(=O)NCCO` [PEA, palmitoyl ethanolamide], the “layers/depth of P. aeruginosa biofilm” value (P. aeruginosa biofilm) is reported as “reduced layers/depth of biofilm”.
In the case of gentamycin [reference compound], the “decrease of MIC in combination” value (S.aureus MRSA 33592; AEA with gentamicin vs agent alone) is reported as 32 fold, the “FIC GEN” value (S.aureus MRSA 33592; MIC of gentamicin in combination with AEA, Table 7) is reported as 4 and the “FIC GEN” value (S.aureus MRSA 33592; MIC of gentamycin in combination with ARAS, Table 4) is reported as 4. For the same molecule, the MIC GEN (S.aureus MRSA 33592; gentamicin alone, Table 7) was 128 mg/L, the MIC GEN (S.aureus MRSA 33592; gentamycin alone, Table 4) was 128 mg/L and the “FBIC GEN” value ([3]; MBIC of gentamicin in combination with AEA, Table 7) was 8. For the same molecule, the “FBIC GEN” value ([3]; MBIC of gentamycin in combination with ARAS, Table 4) was 4, the “MBIC GEN” value ([3]; gentamicin alone, Table 7) was 128 and the “MBIC GEN” value ([3]; gentamycin alone, Table 4) was 128.
